One series relates to HepG2 cell line. Briefly: Resazurin cell growth inhibition assay, HepG2. It is filed as cell-based, human. The conditions noted are these: Homo sapiens, HepG2, 48 h, resazurin assay, 48 h, M ± SEM of three independent experiments; read-out: Cytotoxic activity IC50, HepG2 cell line. The text has this: (§1) All compounds 2a-e, 3a-d, and PPAD’s 4a-t were subjected to a screening system for evaluation of their anticancer activity against cell line of human cancer, namely liver (HepG2 and Huh-7) cancer and normal fibroblast cells obtained from the German Cancer Research Center (DKFZ), following the Resazurin Cell Growth Inhibition Assay[45] in comparison to the standard treatment using DOX (see Supplementary).
(§2) Cell culture and treatment
(§3) All reagents were handled in a sterile fume hood. DMEM medium, and fetal bovine serum (FBS) were purchased from Gibco;phosphate-buffered saline pH 7.4 (PBS) and trypsin-EDTA were obtained from Sigmae Aldrich. Alamar Blue or Resazurin (Promega,Mannheim, Germany) reduction assay was used to assess the cytotoxicity of the studied samples. The growth medium (DMEMmedium with 10% FBS, 10 0 U/mL penicillin, and 10 0 mg/L streptomycin), and alamar blue were stored at 48 C, while trypsineEDTA and FBS were stored frozen at 208C and thawed before use; PBS was stored at room temperature. The Hep-G2, Huh-7 and normal fibroblast cells were obtained from the German Cancer Research Center (DKFZ).Cells were cultured in 50 cm2 culture flask s (Corning) using DMEM medium supplemented with 10% FBS, penicillin (10 0 IU/mL), and streptomycin ([…]). The culture was maintained at 37 C atmosphere of 5% CO2 and 95% relative humidity. The cells were transferred to a new fl ask every 2 days and treated with trypsineEDTA to detach them from the flask . Cells were counted under a microscope using a hemacytometer (Hausser Scientific).Cell solutions were diluted with growth medium to a concentration of 1 *10^5 cells/mL and transferred to a 96-well plate, and treated with gradient concentrations of test compounds.
(§4) Resazurin cell growth inhibition assay
(§5) Alamar Blue or Resazurin (Promega, Mannheim, Germany) reduction assay was used to assess the cytotoxicity of the studied samples. The assay tests cellular viability and mitochondrial function. Briefly y, adherent cells were grown in tissue culture flask s, and then harvested by treating the fl asks with 0.025% trypsin and0.25 mM EDTA for 5 min. Once detached, cells were washed, counted and an aliquot (5 * 103cells) was placed in each well of a96-well cell culture plate in a total volume of […]. Cells were allowed to attach overnight and then treated with samples. The final concentration of samples ranged from 0 to 10 0 mM. After 4 8 h,[…] Resazurin 0.01% w/v solution was added to each well and the plates were incubated at 37C for 1 -2 h. Fluorescence was measured on an automated 96-well Infinite M2000 ProTM plate reader (Tecan, Crailsheim, Germany) using an excit ation wave-length of 54 4 nm and an emission wavelength of 590 nm. Doxorubicin was used as positive control. Each assay was done at least three times, with two replicates each. The viability was compared based on a comparison with untreated cells. IC50(on cancer cells) were the concentration of sample required to inhibit 50% of the cell proliferation and were calculated from a calibration curve by a linear regression using Microsoft Excel

The nature of series [1]: Resazurin cell growth inhibition assay, normal fibroblast cells. The conditions noted are these: M ± SEM of three independent experiments, read-out: Cytotoxic activity IC50, Fibroblast. It counts as cell-based.
Excerpt: as §1, §2, §3, §4, §5

The next series relates to Huh-7 cell line. Briefly: Resazurin cell growth inhibition assay, Huh-7. It is filed as cell-based, human. The conditions noted are these: Homo sapiens, Huh-7, 48 h, resazurin assay, 48 h, M ± SEM of three independent experiments; read-out: Cytotoxic activity IC50, Huh-7 cell line.
Excerpt: as §1, §2, §3, §4, §5

Values after ≈ are worked out from the molar mass of the structure shown.

In turn, `N#Cc1c(-c2ccccc2)nc(N2N=C(c3c4ccccc4cc4ccccc34)CC2c2c[nH]c3ccccc23)[nH]c1=O` (centres unmarked) [Compound 4d, 2-[3-Anthracene-9-yl-5-(1H-indol-3-yl)-4,5-dihydro-pyrazol-1-yl]-6-oxo-4-phenyl-1,6-dihydro-pyrimidine-5-carbonitrile] returned a melting point of 135 to 137 °C. Also, the IC50 in the series on HepG2 cell line came out at 17.2 ± 4.04 µg/mL (≈ 31 µM). Besides, the IC50 at 48 h in series [1] is 21.5 ± 4.07 µg/mL (≈ 38.6 µM). Also, the IC50 in the series with Huh-7 cell line is 8.42 ± 1.04 µg/mL (≈ 15.1 µM).
The corresponding values for `CN(C)c1ccc(C2CC(c3c4ccccc4cc4ccccc34)=NN2c2nc(-c3c[nH]c4ccccc34)c(C#N)c(=O)[nH]2)cc1` (centres unmarked) [Compound 4j, 2-[3-Anthracene-9-yl-5–(4-dimethylamino-phenyl)-4,5-dihydro-pyrazol-1-yl]-4-(1H-indol-3-yl)-6-oxo-1,6-dihydro-pyrimidine-5-carbonitrile] are 240 to 242 °C, 12.2 ± 2.53 µg/mL (≈ 20.3 µM), 34.1 ± 5.17 µg/mL (≈ 56.9 µM) and 13.2 ± 3.05 µg/mL (≈ 22.1 µM).
In the same order, the values of `COc1cc(-c2nc(N3N=C(c4c5ccccc5cc5ccccc45)CC3c3cc(OC)c(OC)c(OC)c3)[nH]c(=O)c2C#N)cc(OC)c1OC` (centres unmarked) [Compound 4o, 2-[3-Anthracene-9-yl-5–(3,4,5-trimethoxy-phenyl)-4,5-dihydro-pyrazol-1-yl]-6-oxo-4–(3,4,5-trimethoxy-phenyl)-1,6-dihydro-pyrimidine-5-carbonitrile] are 165 to 166 °C, 10.2 ± 1.02 µg/mL (≈ 14.6 µM), 28.1 ± 3.31 µg/mL (≈ 40.2 µM) and 14.5 ± 1.24 µg/mL (≈ 20.8 µM).
In the same order, the values of `COc1cc(-c2nc(N3N=C(c4c5ccccc5cc5ccccc45)CC3c3ccc(N(C)C)cc3)[nH]c(=O)c2C#N)cc(OC)c1OC` (centres unmarked) [Compound 4n, 2-[3-Anthracene-9-yl-5–(4-dimethylamino-phenyl)-4,5-dihydro-pyrazol-1-yl]-6-oxo-4–(3,4,5-trimethoxy-phenyl)-1,6-dihydro-pyrimidine-5-carbonitrile] are 170 to 172 °C, 9.66 ± 1.31 µg/mL (≈ 14.8 µM), 18.6 ± 3.17 µg/mL (≈ 28.5 µM) and 9.54 ± 2.16 µg/mL (≈ 14.7 µM).
`O=C(/C=C/c1c[nH]c2ccccc12)c1c2ccccc2cc2ccccc12` [Compound 3d, (2E)-1–(9-anthryl)-3-(1H-indol-3-yl)prop-2-en-1-one] returned a melting point of 170 to 172 °C. Moreover, the IC50 in the series with HepG2 cell line came to 22.5 ± 2.8 µg/mL (≈ 64.8 µM). Moreover, the IC50 at 48 h in series [1] was found to be 40.8 ± 4.72 µg/mL (≈ 117 µM). In addition, the IC50 in the series with Huh-7 cell line came to 22.6 ± 3.3 µg/mL (≈ 65.1 µM).
In the same order, the values of `CN(C)c1ccc(-c2nc(N3N=C(c4c5ccccc5cc5ccccc45)CC3c3ccc(N(C)C)cc3)[nH]c(=O)c2C#N)cc1` (centres unmarked) [Compound 4r, 2-[3-Anthracene-9-yl-5–(4-dimethylamino-phenyl)-4,5-dihydro-pyrazol-1-yl]-4–(4-dimethylamino-phenyl)-6-oxo-1,6-dihydro-pyrimidine-5-carbonitrile] are 174 to 175 °C, 8.44 ± 1.1 µg/mL (≈ 14 µM), 25.2 ± 5.24 µg/mL (≈ 41.8 µM) and 7.61 ± 0.21 µg/mL (≈ 12.6 µM).
In the same order, the values of `COc1cc(C2CC(c3c4ccccc4cc4ccccc34)=NN2c2nc(-c3ccc(N(C)C)cc3)c(C#N)c(=O)[nH]2)cc(OC)c1OC` (centres unmarked) [Compound 4s, 2-[3-Anthracene-9-yl-5–(3,4,5-trimethoxy-phenyl)-4,5-dihydro-pyrazol-1-yl]-4–(4-dimethylamino-phenyl)-6-oxo-1,6-dihydro-pyrimidine-5-carbonitrile] are 160 to 162 °C, 8.66 ± 1.44 µg/mL (≈ 13.3 µM), 20.3 ± 4.15 µg/mL (≈ 31.2 µM) and 11.3 ± 0.61 µg/mL (≈ 17.3 µM).
In the same order, the values of `CN(C)c1ccc(C2CC(c3c4ccccc4cc4ccccc34)=NN2c2nc(-c3ccccc3)c(C#N)c(=O)[nH]2)cc1` (centres unmarked) [Compound 4b, 2-[3-Anthracene-9-yl-5–(4-dimethylamino-phenyl)-4,5-dihydro-pyrazol-1-yl]-6-oxo-4-phenyl-1,6-dihydro-pyrimidine-5-carbonitrile] are 120 to 122 °C, 15.3 ± 4.21 µg/mL (≈ 27.3 µM), 33 ± 6.51 µg/mL (≈ 58.9 µM) and 10.9 ± 2.14 µg/mL (≈ 19.5 µM).
Molecule `N#Cc1c(-c2ccccc2)nc(N2N=C(c3c4ccccc4cc4ccccc34)CC2c2ccc(F)cc2)[nH]c1=O` (centres unmarked) [Compound 4a, 2-[3-Anthracene-9-yl-5–(4-fluoro-phenyl)-4,5-dihydro-pyrazol-1-yl]-6-oxo-4-phenyl-1,6-dihydro-pyrimidine-5-carbonitrile] registered a melting point of 150 to 151 °C. Moreover, the IC50 in the series on HepG2 cell line came out at 11.3 ± 2.11 µg/mL (≈ 21.2 µM). Also, in series [1], the IC50 at 48 h worked out at 32.3 ± 5.22 µg/mL (≈ 60.3 µM). Also, the IC50 with Huh-7 cell line came to 16.8 ± 3.45 µg/mL (≈ 31.3 µM).
In the case of `CN(C)c1ccc(-c2nc(NN)[nH]c(=O)c2C#N)cc1` [Compound 2e, 4-[4-(Dimethylamino)phenyl]-2-hydrazino-6-oxo-1,6-dihydropyrimidine-5-carbonitrile], the melting point is 214 to 216 °C. Further, the IC50 in the series on HepG2 cell line stood at 20.1 ± 3 µg/mL (≈ 74.4 µM). Besides, in series [1], the IC50 at 48 h was determined as 40.4 ± 1.89 µg/mL (≈ 150 µM). Moreover, the IC50 in the series on Huh-7 cell line was 21 ± 4.12 µg/mL (≈ 77.7 µM).
With `CN(C)c1ccc(-c2nc(N3N=C(c4c5ccccc5cc5ccccc45)CC3c3c[nH]c4ccccc34)[nH]c(=O)c2C#N)cc1` (centres unmarked) [Compound 4t, 2-[3-Anthracene-9-yl-5-(1H-indol-3-yl)-4,5-dihydro-pyrazol-1-yl]-4–(4-dimethylamino-phenyl)-6-oxo-1,6-dihydro-pyrimidine-5-carbonitrile], the melting point was in the range of 190 to 191 °C. Besides, the IC50 with HepG2 cell line worked out at 9.21 ± 1.05 µg/mL (≈ 15.4 µM). In addition, the IC50 at 48 h in series [1] worked out at 23.5 ± 3.82 µg/mL (≈ 39.2 µM). In the series with Huh-7 cell line, the IC50 is 7.42 ± 1.48 µg/mL (≈ 12.4 µM).
`COc1cc(C2CC(c3c4ccccc4cc4ccccc34)=NN2c2nc(-c3c[nH]c4ccccc34)c(C#N)c(=O)[nH]2)cc(OC)c1OC` (centres unmarked) [Compound 4k, 2-[3-Anthracene-9-yl-5–(3,4,5-trimethoxy-phenyl)-4,5-dihydro-pyrazol-1-yl]-4-(1H-indol-3-yl)-6-oxo-1,6-dihydro-pyrimidine-5-carbonitrile]: the melting point was 228 to 230 °C. The IC50 in the series with HepG2 cell line came out at 14.1 ± 3.01 µg/mL (≈ 21.8 µM). For the same molecule, the IC50 at 48 h in series [1] came out at 27 ± 4.12 µg/mL (≈ 41.8 µM). Besides, the IC50 in the series with Huh-7 cell line is 13.5 ± 2.32 µg/mL (≈ 20.9 µM).
The corresponding values for `COc1cc(C2CC(c3c4ccccc4cc4ccccc34)=NN2c2nc(-c3ccccc3)c(C#N)c(=O)[nH]2)cc(OC)c1OC` (centres unmarked) [Compound 4c, 2-[3-Anthracene-9-yl-5–(3,4,5-trimethoxy-phenyl)-4,5-dihydro-pyrazol-1-yl]-6-oxo-4-phenyl-1,6-dihydro-pyrimidine-5-carbonitrile] are 110 to 112 °C, 15.3 ± 4.22 µg/mL (≈ 25.2 µM), 29.3 ± 3.51 µg/mL (≈ 48.2 µM) and 11.3 ± 1.09 µg/mL (≈ 18.6 µM).
The corresponding values for `N#Cc1c(-c2c[nH]c3ccccc23)nc(N2N=C(c3c4ccccc4cc4ccccc34)CC2c2c[nH]c3ccccc23)[nH]c1=O` (centres unmarked) [Compound 4l, 2-[3-Anthracene-9-yl-5-(1H-indol-3-yl)-4,5-dihydro-pyrazol-1-yl]-4-(1H-indol-3-yl)-6-oxo–1,6-dihydro-pyrimidine-5-carbonitrile] are 220 to 222 °C, 14.6 ± 2.12 µg/mL (≈ 24.6 µM), 20.2 ± 3.18 µg/mL (≈ 34 µM) and 12.4 ± 1.75 µg/mL (≈ 20.9 µM).

These data come from PMC6537702, “Design, synthesis, molecular modelling, and biological evaluation of novel substituted pyrimidine derivatives as potential anticancer agents for hepatocellular carcinoma” (Journal of Enzyme Inhibition and Medicinal Chemistry, 2019).
